Source: patent publication US10669284B2, “Fused thiazolopyrimidine derivatives as MNKS inhibitors” (LIFEARC, priority 2015, dated 2020)
Like-named read-outs stand apart in the source and are kept apart here.

Experiments:
[1] = target: T1, Full-length human MNK2 (Homo sapiens, UniProt Q9HBH9, T379D); experiment: MNK2 biochemical IC50 assay (Caliper Mobility Shift Assay)
T1 construct: GST (N); purchased Carna Biosciences 02-146; host or cells: baculovirus expression system
From the text: (§1) The phosphorylated peptide product and unphosphorylated peptide substrate were detected using a Caliper Mobility Shift Assay using the Caliper LabChip EZ Reader II.
(§2) The Caliper Mobility Shift Assay technology is based on the utilisation of a microfluidic chip to measure the conversion of a fluorescent non-phosphorylated peptide substrate to phosphorylated product by electrophoresis separation of substrate and product and detection via Laser-induced fluorescence. The LabChip EZ Reader software calculates the relative heights of substrate and product peaks and reports the peak ratio (Product peak(P) divided by the sum of Product peak(P) and Substrate peak(S)). The percent-conversion is calculated as 100×[(P/(P+S)]. All assays were set up to run in the linear phase with a maximum of 10 percent substrate conversion.
(§3) These were N-terminal GST fusion proteins expressed in baculovirus expression system and purified by glutathione sepharose affinity chromatography. […] All other assay reagents were sourced from Sigma.
(§4) The assay incubation times were adjusted depending on the concentration of ATP used. Assays were performed at low (50 uM) and high (1 mM) ATP. The low ATP values were selected to run at Km conditions for the standard assay to allow relative potencies to be compared across other kinases. The high ATP concentration was selected as representative of cellular ATP concentrations, and for an indication of ATP competition, where a significant shift (greater than half log) in apparent potency would be expected compared to Km conditions. All IC50 values reported are the average of at least two independent experiments.
Reactions were performed as above using 10 nM MNK2 in the assay. Standard assays contained 50 uM ATP and high concentration ATP assays contained 1 mM ATP. […] All other conditions were the same.

[2] = target: T2, Full-length human MNK1 (Homo sapiens, UniProt Q9BUB5, T385D); experiment: MNK1 biochemical IC50 assay (Caliper Mobility Shift Assay); settings: read-out: P(IC50) MNK1 (converted)
T2 construct: GST (N); purchased Carna Biosciences 02-145; host or cells: baculovirus expression system
From the text: as §1, §2, §3
Compounds were serially diluted in DMSO to generate a 10-point half log dilution curve with a final top concentration of 100 uM in the assay. […] Compounds were pre-incubated with enzyme and peptide in reaction buffer for 30 mins prior to addition of ATP to initiate the reaction. Final assay concentrations were 3 nM MNK1, 2 uM peptide substrate, 50 uM ATP, 50 mM Hepes pH 7.0, 0.01% BSA, 10 mM MgCl2, 1 mM dithiothrietol.
as §4

[3] = tested on: phosphorylation of eIF4E at ser209 in MV4.11 cell line; experiment: MNK cellular activity phospho-eIF4E detection assay (Alphascreen Surefire); format: cell-based; settings: Homo sapiens
Protocol: The assay detection is based on the formation of sandwich antibody complexes coupled to donor and acceptor beads. Excitation at 680 nm causes the transfer of a singlet oxygen species between donor and acceptor beads when they are in close proximity by binding to the analyte ([…]), which results in the emission of light at 520-620 nm.
Cells were then lysed and the Alphascreen Surefire protocol followed according to manufacturer's recommendations. 8 ul Acceptor beads (1:50 dilution in kit activation buffer) was added to lysate, shaken 150 rpm for 2 min and incubated for 1.5 hr at room temperature. 3 ul Donor beads (1:20 dilution in kit dilution buffer) were then added, shaken 150 rpm for 2 min and incubated for a further 1.5 hr at room temperature after which the plates were read on Pherastar FS using Alphascreen optic module.
Data were normalised relative to untreated DMSO only controls and curves repeated in duplicate within experiments. Data reported are averages of at least 2 independent experiments.

[4] = read-out: P(IC50) MNK2 (converted)
[5] = MV4.11 cell line, phospho-eIF4E (ser209) Alphascreen Surefire, read-out: P(IC50) elF4E (converted)

T2 sequence (Q9BUB5 1-424 isoform Q9BUB5-2 T344D): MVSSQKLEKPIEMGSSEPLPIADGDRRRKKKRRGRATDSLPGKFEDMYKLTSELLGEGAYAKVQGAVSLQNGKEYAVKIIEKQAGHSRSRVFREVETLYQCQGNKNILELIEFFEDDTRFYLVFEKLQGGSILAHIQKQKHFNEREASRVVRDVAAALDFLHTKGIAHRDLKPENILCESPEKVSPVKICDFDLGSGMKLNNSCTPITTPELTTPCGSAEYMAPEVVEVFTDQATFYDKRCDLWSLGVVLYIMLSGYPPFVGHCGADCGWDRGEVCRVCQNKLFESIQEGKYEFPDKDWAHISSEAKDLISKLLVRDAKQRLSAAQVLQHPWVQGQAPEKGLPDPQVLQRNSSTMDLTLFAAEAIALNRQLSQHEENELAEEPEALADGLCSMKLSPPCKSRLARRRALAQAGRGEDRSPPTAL
T1 sequence (Q9HBH9 whole entry T379D): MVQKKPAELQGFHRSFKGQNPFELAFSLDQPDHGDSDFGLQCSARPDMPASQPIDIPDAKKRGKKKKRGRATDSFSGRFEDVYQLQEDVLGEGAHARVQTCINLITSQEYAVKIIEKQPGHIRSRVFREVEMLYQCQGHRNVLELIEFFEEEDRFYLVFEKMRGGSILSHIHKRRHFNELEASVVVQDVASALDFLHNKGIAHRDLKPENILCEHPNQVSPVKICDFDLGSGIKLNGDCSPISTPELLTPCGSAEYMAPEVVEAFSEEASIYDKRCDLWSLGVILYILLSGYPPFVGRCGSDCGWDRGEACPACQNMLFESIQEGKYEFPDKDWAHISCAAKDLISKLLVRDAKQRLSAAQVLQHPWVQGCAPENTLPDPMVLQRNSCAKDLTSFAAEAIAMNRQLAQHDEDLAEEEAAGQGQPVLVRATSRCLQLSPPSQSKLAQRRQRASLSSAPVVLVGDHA

Row | SMILES | IC50 [1, 4] | IC50 [2] | IC50 [3, 5] | IC50 [1] | IC50 ([3]; MV4-11, read-out: P(IC50) elF4E)
1 | CC1CN(c2ncnc3sc(C(=O)NCC4CCNCC4)nc23)c2ccccc21 (stereo not drawn) [Example 146] | 7.94 nM | 6.31 nM | 5.01 nM | – | –
2 | O=C(Nc1ccc(Nc2ncnc3sc(C(=O)NCC4CCNCC4)nc23)cc1)Nc1cccc(C(F)(F)F)c1 [Example 49, N-(4-piperidylmethyl)-7-[4-[[3-(trifluoromethyl)phenyl]carbamoylamino]anilino]thiazolo[5,4-d]pyrimidine-2-carboxamide] | 63.1 nM | 158 nM | 79.4 nM | – | –
3 | CC(C)Oc1cc(F)ccc1Nc1ncnc2sc(C(=O)NC3CCNCC3)nc12 [Example 31, 7-{[4-Fluoro-2-(propan-2-yloxy)phenyl]amino}-N-(piperidin-4-yl)[1,3]thiazolo[5,4-d]pyrimidine-2-carboxamide] | 50.1 nM | 63.1 nM | 50.1 nM | – | –
4 | CC(C)Oc1cc(F)ccc1Nc1ncnc2scnc12 [Example 47, N-[4-fluoro-2-(propan-2-yloxy)phenyl][1,3]thiazolo[5,4-d]pyrimidin-7-amine] | 200 nM | 251 nM | 126 nM | – | –
5 | CC1(C)CN(C(=O)c2nc3c(N4CCc5ccccc54)ncnc3s2)CCO1 [Example 102, (2,2-dimethylmorpholin-4-yl)-(7-indolin-1-ylthiazolo[5,4-d]pyrimidin-2-yl)methanone] | 200 nM | 158 nM | 631 nM | – | –
6 | CC(C)(O)CC1CN(c2ncnc3sc(C(=O)NCC4CCNCC4)nc23)c2ccc(F)cc21 (stereo not drawn) [Example 143] | 6.31 nM | 7.94 nM | 5.01 nM | – | –
7 | CNCC1CN(c2ncnc3sc(C(=O)NC4CCOCC4)nc23)c2ccccc21 (stereo not drawn) [Example 120, 7-[3-(Methylaminomethyl)indolin-1-yl]-N-tetrahydropyran-4-yl-thiazolo[5,4-d]pyrimidine-2-carboxamide] | 31.6 nM | 50.1 nM | 126 nM | – | –
8 | O=C(NC1CCNCC1)c1nc2c(N3CCc4cc(F)ccc43)ncnc2s1 [Example 78, 7-(5-fluoroindolin-1-yl)-N-(4-piperidyl)thiazolo[5,4-d]pyrimidine-2-carboxamide] | 2 nM | 2 nM | 3.16 nM | – | –
9 | CN(C)CCCNC(=O)c1nc2c(Nc3ccc(F)cc3O[C@@H]3CCCOC3)ncnc2s1 [Example 16, N-[3-(dimethylamino)propyl]-7-[4-fluoro-2-[(3R)-tetrahydropyran-3-yl]oxy-anilino]thiazolo[5,4-d]pyrimidine-2-carboxamide] | 100 nM | 100 nM | 158 nM | – | –
10 | CC1(CCO)CN(c2ncnc3sc(C(=O)NCC4CCNCC4)nc23)c2ccccc21 (stereo not drawn) [Example 144] | 15.8 nM | 12.6 nM | 20 nM | – | –
11 | CC(C)Oc1cc(F)ccc1Nc1ncnc2sc(C(=O)NCCN(C)C)nc12 [Example 39, N-[2-(dimethylamino)ethyl]-7-{[4-fluoro-2-(propan-2-yloxy)phenyl]amino}[1,3]thiazolo[5,4-d]pyrimidine-2-carboxamide] | 126 nM | 158 nM | 63.1 nM | – | –
12 | O=C(NCCN1CCNCC1)c1nc2c(N3CCc4cc(F)ccc43)ncnc2s1 [Example 79, 7-(5-fluoroindolin-1-yl)-N-(2-piperazin-1-ylethyl)thiazolo[5,4-d]pyrimidine-2-carboxamide] | 3.16 nM | 3.16 nM | 10 nM | – | –
13 | CN(C)CCCNC(=O)c1nc2c(Nc3ccc(F)cc3OC3CCCC3)ncnc2s1 [Example 22, 7-[2-(Cyclopentoxy)-4-fluoro-anilino]-N-[3-(dimethylamino)propyl]thiazolo[5,4-d]pyrimidine-2-carboxamide] | 63.1 nM | 100 nM | 63.1 nM | – | –
14 | CC1CN(c2ncnc3sc(C(=O)NC4CCN(C)CC4)nc23)c2ccccc21 (stereo not drawn) [Example 126, 7-(3-Methylindolin-1-yl)-N-(1-methyl-4-piperidyl)thiazolo[5,4-d]pyrimidine-2-carboxamide] | 6.31 nM | 3.98 nM | 3.98 nM | – | –
15 | CC(C)Oc1cc(F)ccc1Nc1ncnc2sc(C(=O)NC3CCS(=O)(=O)CC3)nc12 [Example 34, N-(1,1-dioxidotetrahydro-2H-thiopyran-4-yl)-7-{[4-fluoro-2-(propan-2-yloxy)phenyl]amino}[1,3]thiazolo[5,4-d]pyrimidine-2-carboxamide] | 158 nM | 200 nM | 79.4 nM | – | –
16 | O=C(NC1CCOC1)c1nc2c(N3CCc4cc(F)ccc43)ncnc2s1 (stereo not drawn) [Example 77, 7-(5-fluoroindolin-1-yl)-N-tetrahydrofuran-3-yl-thiazolo[5,4-d]pyrimidine-2-carboxamide] | 2 nM | 2 nM | 3.98 nM | – | –
17 | CN1CCN(C(=O)c2nc3c(N4CCc5ccccc54)ncnc3s2)CC1 [Example 96, (7-indolin-1-ylthiazolo[5,4-d]pyrimidin-2-yl)-(4-methylpiperazin-1-yl)methanone] | 251 nM | 398 nM | 501 nM | – | –
18 | CC(C)Oc1cc(F)ccc1Nc1ncnc2sc(C(=O)NCCC3CCN(C)CC3)nc12 [Example 37, 7-{[4-fluoro-2-(propan-2-yloxy)phenyl]amino}-N-[2-(1-methylpiperidin-4-yl)ethyl][1,3]thiazolo[5,4-d]pyrimidine-2-carboxamide] | 39.8 nM | 39.8 nM | 25.1 nM | – | –
19 | CN(C)CCCNC(=O)c1nc2c(Nc3ccc(F)cc3O[C@H]3CCCC[C@@H]3O)ncnc2s1 [Example 19, N-[3-(dimethylamino)propyl]-7-[4-fluoro-2-[(1S,2S)-2-hydroxycyclohexoxy]anilino]thiazolo[5,4-d]pyrimidine-2-carboxamide] | 794 nM | 794 nM | 251 nM | – | –
20 | CN(C)CCCNC(=O)c1nc2c(Nc3ccc(F)cc3O[C@@H]3CCCC[C@H]3O)ncnc2s1 [Example 15, N-[3-(dimethylamino)propyl]-7-[4-fluoro-2-[(1R,2R)-2-hydroxycyclohexoxy]anilino]thiazolo[5,4-d]pyrimidine-2-carboxamide] | 631 nM | 794 nM | 251 nM | – | –
21 | CNCCNC(=O)c1nc2c(Nc3ccc(F)cc3OC(C)C)ncnc2s1 [Example 30, 7-{[4-Fluoro-2-(propan-2-yloxy)phenyl]amino}-N-[2-(methylamino)ethyl][1,3]thiazolo[5,4-d]pyrimidine-2-carboxamide] | 126 nM | 200 nM | 100 nM | – | –
22 | CN(C)CCCOc1nc2c(N3CCc4cc(F)ccc43)ncnc2s1 [Example 89, 3-((7-(5-Fluoroindolin-1-yl)thiazolo[5,4-d]pyrimidin-2-yl)oxy)-N,N-dimethylpropan-1-amine] | 63.1 nM | 39.8 nM | 200 nM | – | –
23 | O=C(NC1CCOCC1)c1nc2c(N3CCc4ncccc43)ncnc2s1 [Example 44, 7-(2,3-Dihydro-1H-pyrrolo[3,2-b]pyridin-1-yl)-N-(tetrahydro-2H-pyran-4-yl)[1,3]thiazolo[5,4-d]pyrimidine-2-carboxamide] | 100 nM | 158 nM | 100 nM | – | –
24 | CC1(C)CN(c2ncnc3sc(C(=O)NCC4CCNCC4)nc23)c2ccccc21 [Example 161] | – | 3.16 nM | – | 2.51 nM | 3.16 nM
25 | O=C(NCC(O)CO)c1nc2c(N3CCc4ccccc43)ncnc2s1 (stereo not drawn) [Example 104] | 12.6 nM | 20 nM | 10 nM | – | –
26 | CNC(=O)c1nc2c(N3CC(CCO)c4ccccc43)ncnc2s1 (stereo not drawn) [Example 157] | 20 nM | 31.6 nM | 10 nM | – | –
